The melting point is the temperature of the solid-liquid transition. The IC50 is the point on the concentration scale where inhibition reaches its midpoint. What is called MIC is the lowest concentration found to suppress growth. One may read the inhibition as the drop in the measured response relative to a control, in per cent. What is called MBC is the lowest tested concentration that kills the bacteria rather than only halting them. Lower therefore signals greater bactericidal potency. As a reminder, the viability is the share of living cells, or the viability signal relative to a control.

The structures appear in SMILES notation. Converted amounts (≈) assume the structure as drawn. A value given as a limit tells only on which side of the number the result lay.

System in one series: not given
Assay: not given
Conditions: not given
Compound `CCCNC(=O)CC1SC(=S)N(CC(C)C)C1=O` (stereo not shown) [Compound 6n, 2-(3-isobutyl-4-oxo-2-thioxothiazolidin-5-yl)-N-propylacetamide] had a melting point of 160 to 162 °C.
`CCCNC(=O)CC1SC(=S)N(Cc2ccccc2)C1=O` (stereo not shown) [Compound 6d, 2-(3-benzyl-4-oxo-2-thioxothiazolidin-5-yl)-N-propylacetamide] had a melting point of 165 to 167 °C.

The subject of a further series is urease-positive clinical isolate of P. vulgaris. Nature of the series: Urease inhibitory activity against P. vulgaris (Christensen's urea medium, 560 nm). Particulars: Proteus vulgaris; 24 h at 37 °C, read at 560 nm. The format is cell-based. As to the method:
To assess the inhibition of urease activity by synthetic compounds, Christensen’s urea.
medium containing urea and phenol red (pH indicator) was used for the preparation of two-fold serial dilutions of compounds in 96-well microtiter plates. Cell suspension of a urease-positive clinical isolate of P. vulgaris was prepared in a urea medium and added to each well. The turbidity of bacterial suspension was adjusted to 0.5 McFarland using a spectrophotometer, and also, the density of inoculated suspension was 1 × 10^6 CFU/ml. The concentrations of compounds were in the range of 1–512 µg/ml.
Inoculated media without adding any compound was considered a positive control, while uninoculated media were used as a negative control (blank). The anti-urease activity was assessed spectroscopically at 560 nm after 24 h incubation at 37 °C[14].
Compound `C=CCNC(=O)CC1SC(=S)N(Cc2ccccc2)C1=O` (stereo not shown) [Compound 6g, N-allyl-2-(3-benzyl-4-oxo-2-thioxothiazolidin-5-yl)acetamide] had an IC50 of 61.7 ± 6.41 µg/mL (≈ 192 µM).
On the same count and under the same terms, the same measure for `CCCNC(=O)CC1SC(=S)N(Cc2ccccc2)C1=O` (stereo not shown) [Compound 6d, 2-(3-benzyl-4-oxo-2-thioxothiazolidin-5-yl)-N-propylacetamide]: 126 ± 8.65 µg/mL (≈ 390 µM).

A further series has as its system methicillin-resistant Staphylococcus aureus (MRSA) isolates. Kind of series: Antimicrobial activity against resistant isolates. It counts as cell-based.
Conditions: not given
As to the method:
Regarding the antibacterial activity of 6n and 6o against the standard strain of S. aureus, these derivatives were tested against methicillin-resistant Staphylococcus aureus (MRSA) isolates.
(§1) Briefly, twofold serial dilutions of the compounds were prepared in Mueller–Hinton Broth (MHB, HiMedia) for bacterial strains and RPMI-1640 (Sigma-Aldrich) for yeast strain (Ranging 1–512 µg/ml). Then, 100 μL of each dilution was transferred into the well of a microtiter plate and inoculated with 100 μL of cell suspension with a final density of 1–5 × 10^3 CFU/ml for yeasts and 1–1.5 × 10^6 cells/ml for bacteria. Plates were incubated at proper temperature overnight, and the minimum inhibitory concentration (MIC) of compounds was determined as the lowest concentration that prevented visible growth of tested microorganisms compared with the growth in the control wells (wells without tested compounds). Moreover, the minimum bactericidal/fungicidal concentration (MBC/MFC) of compounds was determined by transferring the 10 µl of clear wells into the agar media. Standard antibacterial and antifungal agents (Ciprofloxacin and Fluconazole) were evaluated. All experiments were performed in duplicate[30],[31].
For `CCCNC(=O)CC1SC(=S)N(CC(C)C)C1=O` (stereo not shown) [Compound 6n, 2-(3-isobutyl-4-oxo-2-thioxothiazolidin-5-yl)-N-propylacetamide], the MIC was determined as 128 µg/mL (≈ 444 µM).

A further series concerns C. albicans ATCC 10261. Kind of series: Antimicrobial activity, broth microdilution (CLSI). The format is cell-based. The settings on record: Candida albicans, ATCC10261. Here is the method:
The antimicrobial activity of designed compounds was investigated using broth microdilution.
as §1
(In general: Broth dilution looks for growth in wells or tubes with falling amounts of substance.)
In turn, `C=CCNC(=O)CC1SC(=S)N(Cc2ccccc2)C1=O` (stereo not shown) [Compound 6g, N-allyl-2-(3-benzyl-4-oxo-2-thioxothiazolidin-5-yl)acetamide] showed an MIC greater than 512 µg/mL.
As for `CCCNC(=O)CC1SC(=S)N(CC(C)C)C1=O` (stereo not shown) [Compound 6n, 2-(3-isobutyl-4-oxo-2-thioxothiazolidin-5-yl)-N-propylacetamide], the MIC was greater than 512 µg/mL.
Still for that read-out and setting: the same measure for `CCCNC(=O)CC1SC(=S)N(Cc2ccccc2)C1=O` (stereo not shown) [Compound 6d, 2-(3-benzyl-4-oxo-2-thioxothiazolidin-5-yl)-N-propylacetamide]: greater than 512 µg/mL.

Another series deals with urease (Canavalia ensiformis, UniProt P07374). Kind of series: biochemical. It counts as biochemical.
urease (Canavalia ensiformis, UniProt P07374), sequence (P07374 whole entry, looked up): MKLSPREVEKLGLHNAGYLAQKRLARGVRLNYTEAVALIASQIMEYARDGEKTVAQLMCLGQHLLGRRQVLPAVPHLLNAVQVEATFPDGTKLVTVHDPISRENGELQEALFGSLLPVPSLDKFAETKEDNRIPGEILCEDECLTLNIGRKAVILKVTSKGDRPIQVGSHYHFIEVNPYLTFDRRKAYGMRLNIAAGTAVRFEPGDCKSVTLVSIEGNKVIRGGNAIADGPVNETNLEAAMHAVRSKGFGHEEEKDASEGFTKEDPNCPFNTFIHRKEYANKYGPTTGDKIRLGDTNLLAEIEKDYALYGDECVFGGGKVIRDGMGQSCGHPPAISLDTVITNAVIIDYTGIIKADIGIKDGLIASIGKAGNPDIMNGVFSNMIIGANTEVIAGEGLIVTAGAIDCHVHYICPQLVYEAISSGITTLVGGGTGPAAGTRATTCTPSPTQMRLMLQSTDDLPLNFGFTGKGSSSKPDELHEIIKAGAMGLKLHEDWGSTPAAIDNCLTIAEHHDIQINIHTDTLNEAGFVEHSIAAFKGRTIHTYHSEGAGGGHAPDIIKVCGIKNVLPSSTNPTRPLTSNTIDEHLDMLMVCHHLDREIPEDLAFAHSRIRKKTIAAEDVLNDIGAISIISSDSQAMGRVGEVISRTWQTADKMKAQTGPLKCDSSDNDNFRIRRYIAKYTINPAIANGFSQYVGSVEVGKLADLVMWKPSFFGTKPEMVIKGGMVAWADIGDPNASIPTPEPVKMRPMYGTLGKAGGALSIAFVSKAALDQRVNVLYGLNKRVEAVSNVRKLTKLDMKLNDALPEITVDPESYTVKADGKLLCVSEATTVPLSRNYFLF
Conditions: not given
Here is the method: The assay was performed exactly according to our previous report. Briefly, 850 μL of urea and 15 μL urease (0.135 units dissolved in PBS, pH 7.4) were added to 100 μL of the synthesized derivatives at different concentrations. After 30 min, to 100 μL of the incubated solution, 500 μL solution I (5.0 g phenol and 25.0 mg sodium nitroprusside in 500 mL water) was added followed by the addition of 500 μL of solution II (2.5 g sodium hydroxide, 4.2 mL sodium hypochlorite, and 5% chlorine in 500 mL water) which was further incubated at 37 °C for 30 min. The absorbance was determined by measuring indophenols at 625 nm. Thiourea was used as the standard inhibitor for urease. The IC50 values for all synthesized compounds were calculated using GraphPad Prism software (GraphPad Software, Inc., San Diego, CA)[20].
Regarding `C=CCNC(=O)CC1SC(=S)N(Cc2ccccc2)C1=O` (stereo not shown) [Compound 6g, N-allyl-2-(3-benzyl-4-oxo-2-thioxothiazolidin-5-yl)acetamide], the IC50 worked out at 1610 ± 500 nM.
In turn, `CCCNC(=O)CC1SC(=S)N(CC(C)C)C1=O` (stereo not shown) [Compound 6n, 2-(3-isobutyl-4-oxo-2-thioxothiazolidin-5-yl)-N-propylacetamide] returned an IC50 of 2380 ± 490 nM.
Turning to `CCCNC(=O)CC1SC(=S)N(Cc2ccccc2)C1=O` (stereo not shown) [Compound 6d, 2-(3-benzyl-4-oxo-2-thioxothiazolidin-5-yl)-N-propylacetamide], half-maximal inhibition (IC50) was put at 1850 ± 660 nM.

In the next series the test system is urease.
Assay: not given
The settings on record: 4-thiazolidinone analogs; read-out: IC50, urease inhibition; cited from earlier work.
`COc1cc(/C=N\N=C2\NC(=O)CS2)c(OC)cc1Br` [C]: the IC50 was 1730 ± 1000 nM.

The same series, now with this note: arylhydrazide Schiff base-thiazolidinones; read-out: IC50, urease inhibition; cited from earlier work.
With `N#Cc1ccc(C(=O)NN2C(=O)CSC2c2ccccc2O)cc1` (stereo not shown) [D], the IC50 was 4100 ± 20 nM.

Staying with this series, now noted: thiazolidine carboxylic acid lead; read-out: IC50, urease inhibition; cited from earlier work.
Regarding `O=C(O)[C@@H]1CSCN1` [A], the IC50 was 3030 ± 98 nM.

In another series the test system is S. aureus biofilm. Kind of series: Inhibition of biofilm formation (crystal violet assay). It counts as cell-based. Particulars: Staphylococcus aureus, read-out: inhibition in the development of biofilm by S. aureus. Here is the method:
To evaluate the ability of the synthesized compounds 6a-i to prevent biofilm formation by standard species of S. aureus (ATCC25923) and MRSA strain, biofilms were pre-formed in 96 well plates, as previously described. Firstly, bacterial strains were inoculated into Tryptic Soy Broth (TSB) medium. The cells were cultivated on a shaker overnight for 180 r/min at 37 °C. Then, the suspension was centrifuged, and the cells were washed with PBS three times. Diluted cell suspension of strains was added into the wells with 1 × 10^6 final concentration. The plates were incubated for 4 h at 37 °C. After that, 100 μl of each of the dissolved compounds was added to a final concentration of […] in the wells. The plates were further incubated for 24 h at 37 °C. Following incubation, the crystal violet assay was performed to evaluate the inhibition of biofilm formation. For this purpose, the supernatant of the wells was aspirated gently, and the wells were washed three times with sterile distilled water. […] Assessment of biofilm formation was performed by transferring 100 μl of the destaining solution to a new plate and measuring the absorbance at 590 nm using a microplate reader. […] The mean absorbance (OD590 nm) of the samples was determined, and percentage inhibition was obtained using Eq. (1) as follows: 1 Percentageinhibition:ODblank-ODtest×100/ODblank
On to `CCCNC(=O)CC1SC(=S)N(CC(C)C)C1=O` (stereo not shown) [Compound 6n, 2-(3-isobutyl-4-oxo-2-thioxothiazolidin-5-yl)-N-propylacetamide], for which the inhibition at 512 µg/mL came to 37%.

Another series deals with S. aureus ATCC 25923. Kind of series: Antimicrobial activity, broth microdilution (CLSI). It counts as cell-based. The settings on record: Staphylococcus aureus, ATCC25923. Here is the method: (§2) Then, 100 μL of each dilution was transferred into the well of a microtiter plate and inoculated with 100 μL of cell suspension with a final density of 1–5 × 10^3 CFU/ml for yeasts and 1–1.5 × 10^6 cells/ml for bacteria. Plates were incubated at proper temperature overnight, and the minimum inhibitory concentration (MIC) of compounds was determined as the lowest concentration that prevented visible growth of tested microorganisms compared with the growth in the control wells (wells without tested compounds). […] All experiments were performed in duplicate[30],[31].
The compound `C=CCNC(=O)CC1SC(=S)N(Cc2ccccc2)C1=O` (stereo not shown) [Compound 6g, N-allyl-2-(3-benzyl-4-oxo-2-thioxothiazolidin-5-yl)acetamide] gave an MIC greater than 512 µg/mL.
As to `CCCNC(=O)CC1SC(=S)N(CC(C)C)C1=O` (stereo not shown) [Compound 6n, 2-(3-isobutyl-4-oxo-2-thioxothiazolidin-5-yl)-N-propylacetamide], the MBC was greater than 512 µg/mL and 128 µg/mL (≈ 444 µM) was the least that counted as inhibitory (MIC).
Consider `CCCNC(=O)CC1SC(=S)N(Cc2ccccc2)C1=O` (stereo not shown) [Compound 6d, 2-(3-benzyl-4-oxo-2-thioxothiazolidin-5-yl)-N-propylacetamide], for which the MIC is greater than 512 µg/mL.

In another series the test system is E. coli ATCC 25922. Kind of series: Antimicrobial activity, broth microdilution (CLSI). It counts as cell-based. Particulars: Escherichia coli, ATCC25922, read-out: MIC. As to the method:
as §2
As to `C=CCNC(=O)CC1SC(=S)N(Cc2ccccc2)C1=O` (stereo not shown) [Compound 6g, N-allyl-2-(3-benzyl-4-oxo-2-thioxothiazolidin-5-yl)acetamide], the MIC is greater than 512 µg/mL.
The same measure, in the same setting: the same measure for `CCCNC(=O)CC1SC(=S)N(CC(C)C)C1=O` (stereo not shown) [Compound 6n, 2-(3-isobutyl-4-oxo-2-thioxothiazolidin-5-yl)-N-propylacetamide]: greater than 512 µg/mL.
Regarding `CCCNC(=O)CC1SC(=S)N(Cc2ccccc2)C1=O` (stereo not shown) [Compound 6d, 2-(3-benzyl-4-oxo-2-thioxothiazolidin-5-yl)-N-propylacetamide], the MIC is greater than 512 µg/mL.

The test system of the next series is clinical isolate of P. vulgaris. Nature of the series: Antimicrobial activity, broth microdilution (CLSI). The format is cell-based. The settings on record: Proteus vulgaris. As to the method:
as §2
On to `C=CCNC(=O)CC1SC(=S)N(Cc2ccccc2)C1=O` (stereo not shown) [Compound 6g, N-allyl-2-(3-benzyl-4-oxo-2-thioxothiazolidin-5-yl)acetamide], for which the MIC is greater than 512 µg/mL.
On the same count and under the same terms, for `CCCNC(=O)CC1SC(=S)N(CC(C)C)C1=O` (stereo not shown) [Compound 6n, 2-(3-isobutyl-4-oxo-2-thioxothiazolidin-5-yl)-N-propylacetamide] the value was greater than 512 µg/mL.
On the same count and under the same terms, for `CCCNC(=O)CC1SC(=S)N(Cc2ccccc2)C1=O` (stereo not shown) [Compound 6d, 2-(3-benzyl-4-oxo-2-thioxothiazolidin-5-yl)-N-propylacetamide] the value was greater than 512 µg/mL.

System in the next series: not listed separately
Kind of series: In vitro cytotoxic evaluation (MTT assay). It counts as cell-based. The settings on record: human, MOLT-4 cells. Here is the method:
MOLT-4 (human acute lymphoblastic leukemia) cells were cultures in RPMI-1640 medium supplemented with 10% heat-inactivated fetal bovine serum. Cell viability was measured by the MTT assay. MOLT-4 cells were seeded into 96-well micro-culture plates. After 24 h, the culture medium was replaced with a medium containing different concentrations of newly synthesized derivatives. Control wells were supplemented with the same volume of growth medium not containing any drugs. Cells were then incubated at 37 °C for 72 h. At the end of the exposure time, the medium was removed and MTT solution of 0.5 mg/ml was added to each well. The plates were incubated at 37 °C for 4 h, after which DMSO was added to each well to solubilize the formed formazan crystals, and the absorbance of each well was read with a microplate reader at 570 nm.
As to `C=CCNC(=O)CC1SC(=S)N(Cc2ccccc2)C1=O` (stereo not shown) [Compound 6g, N-allyl-2-(3-benzyl-4-oxo-2-thioxothiazolidin-5-yl)acetamide], the viability at 72 h, 100 µM is 91.6 ± 3.7%.
On the same count and under the same terms, the same measure for `CCCNC(=O)CC1SC(=S)N(CC(C)C)C1=O` (stereo not shown) [Compound 6n, 2-(3-isobutyl-4-oxo-2-thioxothiazolidin-5-yl)-N-propylacetamide]: 96.4 ± 2.2%.
In the case of `CCCNC(=O)CC1SC(=S)N(Cc2ccccc2)C1=O` (stereo not shown) [Compound 6d, 2-(3-benzyl-4-oxo-2-thioxothiazolidin-5-yl)-N-propylacetamide], the viability at 72 h, 100 µM turned out to be 95.5 ± 3.2%.

The values are drawn from PMC9807592, “New thioxothiazolidinyl-acetamides derivatives as potent urease inhibitors: design, synthesis, in vitro inhibition, and molecular dynamic simulation” (Scientific Reports, 2023).
